One series in a line: Lack of toxicity in rats. The class given is in vivo, rat. Conditions: for respiratory disturbances, stereotyped behavior, muscle tone: rats observed for 4 hours post administration. As to the method:
PTR 3013 was not toxic to the rats even with doses of 4 mg/kg. These two doses are several orders of magnitude higher than those needed to elicit the desired endocrine effect. The peptides dissolved in saline produced no untoward side effects on the central nervous system, cardiovascular system, body temperature, nor on the periphery of the animals.

Series [1] deals with T1, rat SSTR-5 (Rattus norvegicus, UniProt P30938).
T1 sequence (P30938 1-363): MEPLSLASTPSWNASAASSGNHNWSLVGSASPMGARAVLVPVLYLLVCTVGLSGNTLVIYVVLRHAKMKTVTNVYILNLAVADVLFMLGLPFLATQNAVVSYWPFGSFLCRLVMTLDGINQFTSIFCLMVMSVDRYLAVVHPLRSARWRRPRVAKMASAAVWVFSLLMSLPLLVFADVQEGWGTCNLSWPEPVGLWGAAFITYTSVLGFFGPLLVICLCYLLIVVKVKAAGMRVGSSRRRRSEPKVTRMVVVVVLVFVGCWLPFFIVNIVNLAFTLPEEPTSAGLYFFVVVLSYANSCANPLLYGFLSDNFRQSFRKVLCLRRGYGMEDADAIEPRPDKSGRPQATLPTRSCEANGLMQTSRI
In words: Radioligand binding, inhibition of 125I-Tyr11-SRIF binding to cloned rat SSTR-5. As to the method: (§1) The somatostatin analogs were tested for their potency in inhibition of the binding of ^125 I-Tyr^11 -SRIF (based on the method described by Raynor et. al., Molecular Pharmacology 43, 838-844, 1993) to membrane preparations expressing the transmembranal somatostatin receptors (SSTR-1,2,3,4 or 5). The receptor preparations used for these tests were either from the cloned receptors selectively and stably expressed in Chinese Hamster Ovary (CHO) cells or from cell lines naturally expressing the SSTRs. […] The binding reactions were filtered, the filters were washed and the bound radioactivity was counted in gamma counter. […] In order to validate positive signals of the binding tests, and to eliminate non-specific signals, samples of irrelevant peptides, such as GnRH, that were synthesized and handled using the same procedures, were tested in the same assays as negative control samples.

The target of another series is SSTR-3 (Homo sapiens, UniProt P32745). In words: Radioligand binding, inhibition of 125I-Tyr11-SRIF binding to cloned SSTR-3. As to the method:
as §1

Series [2] has as its target T1, rat SSTR-5. The settings on record: Table 22; known SST analogs, literature values; read-out: IC50 value rSSTR 5; cited from earlier work.
Series [3] in a line: In vitro biostability in human serum (HPLC). The class given is in vitro ADME. The settings on record: 37° C. As to the method:
Analogs are tested for stability by their resistance to enzymatic degradation by incubation in serum or in tissue homogenate, separation of the proteins and recording of the peptide peaks by HPLC before and after incubation. […] These peaks are separated and characterized by mass spectrometry, N-terminal sequence and comparison to purified peptide peaks.
The assay was based on HPLC determination of peptide degradation as a function of time in serum at 37° C.

The target of the next series is SSTR-2. Put plainly: Radioligand binding, inhibition of 125I-Tyr11-SRIF binding to cloned SSTR-2. Conditions: Table 21; inhibition of iodinated SRIF-14 binding, CHO cells; tested at 10^-6, 10^-7, 10^-8 M; read-out: IC50 SSTR-2. Here is the method:
as §1

What is called IC50 is the concentration needed to halve the response being measured.

Where two headings read alike, the source gives them in different places. Peptide text beside a SMILES is read from it.

Sequence of SSTR-3 (P32745 whole entry, species assumed): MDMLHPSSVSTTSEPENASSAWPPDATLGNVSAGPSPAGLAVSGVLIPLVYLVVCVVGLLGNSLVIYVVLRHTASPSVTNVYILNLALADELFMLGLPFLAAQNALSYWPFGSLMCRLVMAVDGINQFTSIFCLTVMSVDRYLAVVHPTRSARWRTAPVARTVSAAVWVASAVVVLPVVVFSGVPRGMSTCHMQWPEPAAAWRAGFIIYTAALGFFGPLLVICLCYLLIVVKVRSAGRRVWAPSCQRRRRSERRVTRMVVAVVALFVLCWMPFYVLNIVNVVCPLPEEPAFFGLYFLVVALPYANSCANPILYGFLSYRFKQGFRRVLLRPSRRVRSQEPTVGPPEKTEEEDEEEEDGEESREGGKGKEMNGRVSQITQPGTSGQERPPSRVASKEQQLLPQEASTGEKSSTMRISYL

With `C[C@@H](O)[C@H](NC(=O)CN1CCCNC(=O)CCN(C(=O)[C@H](N)Cc2ccccc2)CC(=O)N[C@@H](Cc2ccccc2)C(=O)N[C@H](Cc2c[nH]c3ccccc23)C(=O)N[C@@H](CCCCN)C(=O)N[C@@H]([C@@H](C)O)C1=O)C(N)=O` [PTR 3007] (HELM PEPTIDE1{[dF].[O=C(CN(CCC(=O)[*:3])[*:1])[*:2]].F.[dW].K.T.[O=C(CN(CCCN[*:3])[*:1])[*:2]].T.[am]}$PEPTIDE1,PEPTIDE1,2:R3-7:R3$$$V2.0), in the series “Lack of toxicity in rats”, the “respiratory disturbances, stereotyped behavior, muscle tone” value is “no respiratory disturbances”. The IC50 at rat SSTR-5 [1] was > 2000 nM; at SSTR-3 it was > 10000 nM.
Regarding `C[C@@H](O)[C@@H]1NC(=O)[C@H](CCCCN)NC(=O)[C@@H](Cc2c[nH]c3ccccc23)NC(=O)[C@H](Cc2ccccc2)NC(=O)[C@@H](NC(=O)[C@H](N)Cc2ccccc2)CSSC[C@@H](C(=O)N[C@H](CO)[C@@H](C)O)NC1=O` [Octreotide, DPhe^5 -cyclo(Cys^6 -Phe^7 -DTrp^5 -Lys^9 -Thr^10 -Cys^11)-Thr^12 -ol], the IC50 at rat SSTR-5 [2] was 0.2 nM.
On to `C[C@@H](O)[C@H](NC(=O)CN1CCNC(=O)CCN(C(=O)[C@H](N)Cc2ccccc2)CC(=O)N[C@@H](Cc2ccccc2)C(=O)N[C@H](Cc2c[nH]c3ccccc23)C(=O)N[C@@H](CCCCN)C(=O)N[C@@H]([C@@H](C)O)C1=O)C(N)=O` [PTR 3002] (HELM PEPTIDE1{[dF].[O=C(CN(CCC(=O)[*:3])[*:1])[*:2]].F.[dW].K.T.[O=C(CN(CCN[*:3])[*:1])[*:2]].T.[am]}$PEPTIDE1,PEPTIDE1,2:R3-7:R3$$$V2.0), for which the “in vitro biostability (peptide degradation as a function of time)” value in series [3] is “as stable as Octreotide, is more stable than the corresponding non-cyclic structure, and is much more stable than SRIF”.
On to “DPhe^5 -cyclo(Cys^6 -Tyr^7 -DTrp^8 -Lys^9 -Val^10 -Cys^11)-Trp^12 -NH2 [RC-160]”, for which the IC50 at rat SSTR-5 [2] is 0.2 nM.
In the case of `C[C@@H](O)[C@H](NC(=O)[C@H](Cc1ccccc1)NC(=O)CN1CCNC(=O)CCN(C(=O)[C@H](N)Cc2ccccc2)CC(=O)N[C@@H](Cc2ccccc2)C(=O)N[C@H](Cc2c[nH]c3ccccc23)C(=O)N[C@@H](CCCCN)C1=O)C(N)=O` [PTR 3019] (HELM PEPTIDE1{[dF].[O=C(CN(CCC(=O)[*:3])[*:1])[*:2]].F.[dW].K.[O=C(CN(CCN[*:3])[*:1])[*:2]].F.T.[am]}$PEPTIDE1,PEPTIDE1,2:R3-6:R3$$$V2.0), the IC50 on SSTR-2 is > 10000 nM.
As for `CC(=O)N1CCCNC(=O)CCN(CC(=O)N[C@@H](Cc2ccccc2)C(=O)N[C@H](C(N)=O)[C@@H](C)O)C(=O)[C@H](CCCCN)NC(=O)[C@@H](Cc2c[nH]c3ccccc23)NC(=O)[C@H](Cc2ccccc2)NC(=O)C1` [PTR 3013] (HELM PEPTIDE1{[ac].[O=C(CN(CCCN[*:3])[*:1])[*:2]].F.[dW].K.[O=C(CN(CCC(=O)[*:3])[*:1])[*:2]].F.T.[am]}$PEPTIDE1,PEPTIDE1,2:R3-6:R3$$$V2.0), in “Lack of toxicity in rats”, the “respiratory disturbances, stereotyped behavior, muscle tone” value is reported as “no respiratory disturbances”. For the same compound, the toxicity entry in “Lack of toxicity in rats” (rats, doses of 4 mg/kg) is on record as “not toxic”. The IC50 on SSTR-2 was > 10000 nM.
`C[C@@H](O)[C@H](NC(=O)CN1CCCNC(=O)CN(C(=O)[C@H](N)Cc2ccccc2)CC(=O)N[C@@H](Cc2ccccc2)C(=O)N[C@H](Cc2c[nH]c3ccccc23)C(=O)N[C@@H](CCCCN)C(=O)N[C@@H]([C@@H](C)O)C1=O)C(N)=O` [PTR 3004]: the IC50 is > 2000 nM at rat SSTR-5 [1] and > 10000 nM at SSTR-3.

The record behind these values is patent publication US5770687A, “Comformationally constrained backbone cyclized somatostatin analogs” (Peptor Limited, priority 1996, dated 1998).
